Entries after “also recorded” stand apart in the source; their conditions may differ. Read-outs that look alike come from different tables or passages of the source.
Key:
[1] = Simulation of steady state exposure from the final population PK model (sensitive plot); type: in vivo, human; settings: for AUC / Cmax: human, plasma, oral, 100 mg, 100 mg once daily for 12 weeks
Procedure: Individual empirical Bayes estimates PK parameters from the final model were used to predict the steady state exposure of yimitasvir. The simulated dosing regimen was yimitasvir 100 mg once daily for 12 consecutive weeks. […] The steady state exposure was calculated using PK parameters with incorporation of the isolated effect from the covariate and with other unaffected PK parameters fixed to the typical value.

[2] = tested on: chronic HCV genotype 1 infection; experiment: Phase 2 study of yimitasvir with sofosbuvir in patients with chronic HCV infection; type: in vivo, human; settings: for Adverse reaction rate: with 400 mg sofosbuvir
Procedure: In phase 2 study, yimitasvir 100 or 200 mg was administered once daily for 12 weeks in combination with 400 mg sofosbuvir in patients with chronic HCV infection. […] The primary endpoint of phase 2 study was sustained virologic response [HCV RNA less than lower limit of quantification (LLOQ)] 12 (SVR12) weeks after the completion of treatment. SVR12 rates were achieved 100% in both 100 mg yimitasvir/400 mg sofobuvir and 200 mg yimitasvir/400 mg sofobuvir groups. […] The most common adverse reactions were neutropenia (3.9%), leukopenia (3.1%), hypercholesterolemia (3.1%) and fatigue (3.1%).
The current population PK analysis of yimitasvir was performed using rich and sparse PK samples collected from six clinical pharmacology trials [4 phase 1 ([Zhao et al., 2019]), 1 phase 1b ([Zhang et al., 2018]) and 1 phase 2 studies] in Chinese healthy volunteers and HCV-infected patients. Rich sampling entailed serial blood sampling at defined time points, and sparse sampling (single sample) only in phase 2 study entailed blood collection at every study visits. Patients with genotype 1 HCV infection were eligible, while patients with prior use of direct-acting antiviral agents (DAA) for HCV infection treatment were excluded in phase 1b and phase 2 studies.

[3] = cited from earlier work
[4] = set-up: method as in Zhang et al., 2018; settings: patients, ref Zhang et al., 2018, cited from earlier work
[5] = tested on: human plasma proteins; settings: independent of drug concentration over 100–2000 ng ml^−1; cited from earlier work
[6] = mice; cited from earlier work
[7] = rats; cited from earlier work
[8] = dogs; cited from earlier work
[9] = humans; cited from earlier work
[10] = tested on: P-glycoprotein (P-gp); settings: cited from earlier work
[11] = tested on: cytochrome P450 (CYP) 2C8; settings: cited from earlier work
[12] = tested on: CYP 1A2; settings: cited from earlier work
[13] = tested on: CYP 2B6; settings: cited from earlier work
[14] = tested on: CYP 2C9; settings: cited from earlier work
[15] = tested on: CYP 2C19; settings: cited from earlier work
[16] = tested on: CYP 3A4; settings: cited from earlier work
[17] = tested on: CYP3A4; settings: cited from earlier work
[18] = in the evening after dinner more than 4 h
[19] = 100 or 200 mg with 400 mg sofosbuvir
[20] = high-fat meal, food effect study, ref Zhao et al., 2019

COC(=O)NC(C(=O)N1CCCC1c1ncc(-c2ccc(-c3ccc(-c4ccc5nc(C6CCCN6C(=O)C(NC(=O)OC)C(C)C)[nH]c5c4)c4c3C3CCC4C3)cc2)[nH]1)C(C)C (stereo not shown) [yimitasvir]
Decrease in Cmax,ss ([1]; after a high-fat meal, model simulated): 58.9%
Magnitude of ALT on the steady-state exposure ([1]; healthy volunteers with extreme ALT values (5th and 95th percentiles) relative to typical): ~30%
AUC ([1]; empirical Bayes estimates, lower end of range, read-out: AUCss, 5th percentile of the population): 3260 ng·h/mL
AUC ([1]; empirical Bayes estimates, upper end of range, read-out: AUCss, 95th percentile of the population): 17400 ng·h/mL
Cmax ([1]; lower end of range, read-out: Cmax,ss, 5th percentile of the population): 182 ng/mL
Cmax ([1]; upper end of range, read-out: Cmax,ss, 95th percentile of the population): 1270 ng/mL
Decrease in AUCss [1, 18]: 28.9%
Decrease in Cmax,ss [1, 18]: 46.1%
Decrease in Ctrough,ss [1, 18]: 10.0%
Steady state exposures (AUCss, Ctrough,ss, Cmax,ss) higher in female than male subjects ([1]; in vivo): 15.1–54.0%
AUC ([1]; male, typical subject: male, healthy volunteer, fasted 10 h, ALT=31.6 IU l^-1, read-out: AUCss, base): 7250 ng·h/mL
Cmax ([1]; male, typical subject: male, healthy volunteer, fasted 10 h, ALT=31.6 IU l^-1, read-out: Cmax,ss, base): 540 ng/mL
Difference in exposures between patients and healthy volunteers ([1]; steady state): no difference in exposures
Decrease in Ctrough,ss ([1]; with a high-fat meal): 3.52%
Adverse reaction rate ([2]; 100 mg group): 35.9%
SVR12 rate ([2]; 100 mg yimitasvir/400 mg sofosbuvir once daily for 12 weeks): 100%
Adverse reaction rate ([2]; 200 mg group): 36.9%
SVR12 rate ([2]; 200 mg yimitasvir/400 mg sofosbuvir once daily for 12 weeks): 100%
Effect of co-medication of sofosbuvir on PK profile ([2]; 400 mg sofosbuvir): did not affect; also recorded: not affected by co-medication of sofosbuvir
Adverse reaction: fatigue [2, 19]: 3.1%
Adverse reaction: hypercholesterolemia [2, 19]: 3.1%
Adverse reaction: leukopenia [2, 19]: 3.1%
Adverse reaction: neutropenia [2, 19]: 3.9%
Severity of adverse reactions ([2]; most common adverse reactions): grade 1 or 2; also recorded: grade one or two
Dose proportionality of exposure ([2]; patients, 100 or 200 mg with 400 mg sofosbuvir): Less than dose proportionality
SVR12 rate (primary endpoint) ([2]; phase 2 study overall, taken at least 2 h before or after a meal in most patients): 100%
Decrease in AUC [3, 20]: ~50%
Decrease in Cmax [3, 20]: ~63%
Tmax ([3]; high-fat meal, ref Zhao et al., 2019): 5 to 12 h
Terminal half-life (t1/2) ([3]; human, in vivo): 13.4 to 19.7 h
Dose proportionality of exposure ([3]; multiple ascending dose study, 100–400 mg once daily for seven days): less than dose-proportional
Steady state achieved ([3]; once daily dosing regimen): ≤ 5 days
Accumulation ratio ([3]; once daily dosing): 1.32–1.34
Major route of elimination ([3]; ref Zhao et al., 2019): fecal excretion of parent drug
Dose proportionality of AUC and Cmax ([3]; single ascending dose study, healthy volunteers, ref Zhao et al., 2019): increased less than proportionally
Recovered in urine as the parent drug ([3]; through 7 days post-dose, ref Zhao et al., 2019): Less than 0.04%
Dose proportionality of exposure ([4]; 30 to 200 mg administered during the night (4 h after dinner)): near dose-proportional increase in exposure
Median time to peak concentration (Tmax) ([4]; evening after dinner for more than 4 h): 4 to 12 h
Bound to human plasma proteins [5]: 79.2–86.6%
Metabolism in hepatic microsomes [6]: No metabolism
Metabolism in hepatic microsomes [7]: No metabolism
Metabolism in hepatic microsomes [8]: No metabolism
Metabolism in hepatic microsomes [9]: No metabolism
P-gp inhibition [10]: inhibitor
P-gp substrate [10]: substrate
Inhibition of CYP2C8 [11]: weak inhibitor
Inhibition of CYP1A2 [12]: does not inhibit
Inhibition of CYP2B6 [13]: does not inhibit
Inhibition of CYP2C9 [14]: does not inhibit
Inhibition of CYP2C19 [15]: does not inhibit
Inhibition of CYP3A4 [16]: does not inhibit
Induction of CYP3A4 [17]: may be a weak inducer
